Source: PubChem BioAssay AID328 (DTP/NCI, 2004)
“And” between values parts separate entries of the source, which are not always exact repeats. Equal entries are not always repeated. Inconclusive results and toxic doses are left out. How the source made its calls: active means survival T/C of 150% or more; inactive means T/C below 125% in these data.

System: BDF1 mice, P388 leukemia ip, median survival T/C
Test: NCI In Vivo Anticancer Drug Screen. Data for tumor model P388 Leukemia (intraperitoneal) in B6D2F1 (BDF1) mice
Conditions: endpoint: median survival time, higher = longer survival
Summary of the method: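 T/C = treated-group survival ÷ vehicle-control survival; tumour transplanted into mice before dosing.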

[1] = dose: 50.0 mg/kg/injection, schedule: Q01DX009 (ip), vehicle: Klucel (hydroxypropylcellulose) (HPC)
[2] = dose: 100.0 mg/kg/injection, schedule: Q01DX009 (ip), vehicle: Klucel (hydroxypropylcellulose) (HPC)
[3] = dose: 100.0 mg/kg/injection, schedule: Q01DX009 (ip), vehicle: saline
[4] = dose: 100.0 mg/kg/injection, schedule: Q04DX003 (ip), vehicle: Klucel (hydroxypropylcellulose) (HPC)
[5] = dose: 200.0 mg/kg/injection, schedule: Q04DX003 (ip), vehicle: Klucel (hydroxypropylcellulose) (HPC)
[6] = dose: 400.0 mg/kg/injection, schedule: Q01DX009 (ip), vehicle: Klucel (hydroxypropylcellulose) (HPC)
[7] = dose: 50.0 mg/kg/injection, schedule: Q01DX009 (ip), vehicle: saline with Tween-80
[8] = dose: 100.0 mg/kg/injection, schedule: Q01DX009 (ip), vehicle: saline with Tween-80
[9] = dose: 100.0 mg/kg/injection, schedule: Q04DX003 (ip), vehicle: saline with Tween-80
[10] = dose: 200.0 mg/kg/injection, schedule: Q01DX009 (ip), vehicle: saline with Tween-80
[11] = dose: 200.0 mg/kg/injection, schedule: Q04DX003 (ip), vehicle: saline with Tween-80
[12] = dose: 1.56 mg/kg/injection, schedule: Q01DX009 (ip), vehicle: saline with Tween-80
[13] = dose: 6.25 mg/kg/injection, schedule: Q01DX009 (ip), vehicle: saline with Tween-80
[14] = dose: 4.0 mg/kg/injection, schedule: Q01DX009 (ip), vehicle: saline with Tween-80

Measured: T/C

CC1(C)C=C(C(Br)c2ccc(Cl)cc2)C(=O)c2ccccc21 (stereo not drawn)
active: [3] 160 % of control
inactive: [1] 100 % of control | dose: 50.0 mg/kg/injection, schedule: Q04DX003 (ip), vehicle: Klucel (hydroxypropylcellulose) (HPC) 100 % of control | [2] 100 % of control and 105 % of control | [4] 90 % of control | [5] 100 % of control | [6] 95 % of control

COc1cc2c(cc1OC)-c1cc3cc(OC)c(OC)cc3c(CCC(=O)O)[n+]1CC2 (tested in a mixture with another compound)
inactive: [3] 106 % of control | dose: 200.0 mg/kg/injection, schedule: Q01DX009 (ip), vehicle: saline 92 % of control | dose: 400.0 mg/kg/injection, schedule: Q01DX009 (ip), vehicle: saline 90 % of control

C/C=C1\CCC2C(=C1C)CC1C2CC=C2CC(OC(C)=O)CCC21C (stereo not drawn)
inactive: [2] 115 % of control | dose: 200.0 mg/kg/injection, schedule: Q01DX009 (ip), vehicle: Klucel (hydroxypropylcellulose) (HPC) 120 % of control | [6] 105 % of control

O=P(N1CC1)(N1CC1)N1CC1
active: dose: 3.0 mg/kg/injection, schedule: Q01DX010 (ip), vehicle: saline 204 % of control

COc1ccc(OC)c(C(C)(O)CC(=O)O)c1 (stereo not drawn)
inactive: [7] 89 % of control | [8] 107 % of control | [9] 112 % of control | [10] 105 % of control | [11] 103 % of control | dose: 400.0 mg/kg/injection, schedule: Q01DX009 (ip), vehicle: saline with Tween-80 90 % of control | dose: 400.0 mg/kg/injection, schedule: Q04DX003 (ip), vehicle: saline with Tween-80 117 % of control

CC(C)(C)NC(=S)N/N=C/c1cc(Cl)cc(Cl)c1O
inactive: [12] 94 % of control | dose: 3.12 mg/kg/injection, schedule: Q01DX009 (ip), vehicle: saline with Tween-80 100 % of control | [13] 99 % of control

CCCCCCCCCCCCOc1ccccc1
inactive: dose: 50.0 mg/kg/injection, schedule: Q04DX003 (ip), vehicle: saline with Tween-80 100 % of control | [9] 109 % of control | [11] 100 % of control

CCCCCCCCCCCCN1C(=O)[N+](C)(C)N=C1[O-]
inactive: dose: 25.0 mg/kg/injection, schedule: Q01DX009 (ip), vehicle: saline with Tween-80 90 % of control | [7] 90 % of control | [8] 92 % of control

CCNC1(c2ccc(Cl)cc2)CCCCC1=O (stereo not drawn)
inactive: dose: 25.0 mg/kg/injection, schedule: Q01DX009 (ip), vehicle: saline 100 % of control | dose: 50.0 mg/kg/injection, schedule: Q01DX009 (ip), vehicle: saline 95 % of control and 100 % of control | dose: 50.0 mg/kg/injection, schedule: Q04DX003 (ip), vehicle: saline 100 % of control | [3] 86 % of control | dose: 100.0 mg/kg/injection, schedule: Q04DX003 (ip), vehicle: saline 95 % of control

C/C=C(\C)C(=O)OC1C(=O)OC2CC3C(C)=CC(=O)C(O)C3(C)C3C4(O)OCC23C1C(C)C4O (stereo not drawn)
inactive: dose: 0.06 mg/kg/injection, schedule: Q01DX009 (ip), vehicle: saline with Tween-80 89 % of control | dose: 0.12 mg/kg/injection, schedule: Q01DX009 (ip), vehicle: saline with Tween-80 104 % of control | dose: 0.25 mg/kg/injection, schedule: Q01DX009 (ip), vehicle: saline with Tween-80 98 % of control | dose: 0.5 mg/kg/injection, schedule: Q01DX009 (ip), vehicle: saline with Tween-80 107 % of control | dose: 1.0 mg/kg/injection, schedule: Q01DX009 (ip), vehicle: saline with Tween-80 103 % of control | dose: 2.0 mg/kg/injection, schedule: Q01DX009 (ip), vehicle: saline with Tween-80 104 % of control | [14] 110 % of control | dose: 8.0 mg/kg/injection, schedule: Q01DX009 (ip), vehicle: saline with Tween-80 100 % of control

CSc1nc(NCc2ccc(Cl)cc2)c2[nH]c(C)nc2n1
inactive: dose: 0.78 mg/kg/injection, schedule: Q01DX009 (ip), vehicle: saline with Tween-80 122 % of control | [12] 101 % of control | dose: 3.13 mg/kg/injection, schedule: Q01DX009 (ip), vehicle: saline with Tween-80 97 % of control | [13] 93 % of control

C[N+]1(C)N=C([O-])N(c2ccc([N+](=O)[O-])cc2)C1=O
inactive: [7] 90 % of control | [8] 99 % of control

C/C(=C\c1ccc2c(c1)OCO2)[N+](=O)[O-]
inactive: dose: 85.0 mg/kg/injection, schedule: Q04DX003 (ip), vehicle: Klucel (hydroxypropylcellulose) (HPC) 118 % of control | [4] 110 % of control | dose: 135.0 mg/kg/injection, schedule: Q04DX003 (ip), vehicle: Klucel (hydroxypropylcellulose) (HPC) 109 % of control | [5] 100 % of control and 109 % of control

Cc1c2ccccc2c(C)c2c1ccc1ccccc12
active: dose: 1.7 mg/kg/injection, schedule: Q01DX009 (ip), vehicle: saline with Tween-80 172 % of control | dose: 2.6 mg/kg/injection, schedule: Q01DX009 (ip), vehicle: saline with Tween-80 163 % of control | [14] 177 % of control | dose: 6.0 mg/kg/injection, schedule: Q01DX009 (ip), vehicle: saline with Tween-80 168 % of control | dose: 13.0 mg/kg/injection, schedule: Q01DX009 (ip), vehicle: saline with Tween-80 172 % of control

CC(C)(O)C1C2OC(=O)C1C1(O)CC3OC34C(=O)OC2C14C (stereo not drawn)
inactive: dose: 12.5 mg/kg/injection, schedule: Q04DX003 (ip), vehicle: saline with Tween-80 109 % of control | dose: 25.0 mg/kg/injection, schedule: Q04DX003 (ip), vehicle: saline with Tween-80 95 % of control

COc1ccc(Nc2cccc(Cl)c2)c(C(=O)O)c1
inactive: dose: 20.0 mg/kg/injection, schedule: Q01DX001 (ip), vehicle: Klucel (hydroxypropylcellulose) (HPC) 122 % of control | dose: 40.0 mg/kg/injection, schedule: Q01DX001 (ip), vehicle: Klucel (hydroxypropylcellulose) (HPC) 100 % of control | dose: 75.0 mg/kg/injection, schedule: Q01DX001 (ip), vehicle: Klucel (hydroxypropylcellulose) (HPC) 104 % of control | dose: 150.0 mg/kg/injection, schedule: Q01DX001 (ip), vehicle: Klucel (hydroxypropylcellulose) (HPC) 100 % of control

O=S(=O)(CBr)OCCCl
inactive: dose: 50.0 mg/kg/injection, schedule: Q01DX005 (ip), vehicle: saline with Tween-80 120 % of control | dose: 100.0 mg/kg/injection, schedule: Q01DX005 (ip), vehicle: saline with Tween-80 121 % of control
active: dose: 200.0 mg/kg/injection, schedule: Q01DX005 (ip), vehicle: saline with Tween-80 165 % of control

CC1=CC23C(COC(=O)C24CO4)C(C(=O)O)=CC3C1C (stereo not drawn)
inactive: dose: 0.31 mg/kg/injection, schedule: Q01DX009 (ip), vehicle: Klucel (hydroxypropylcellulose) (HPC) 105 % of control | dose: 0.63 mg/kg/injection, schedule: Q01DX009 (ip), vehicle: Klucel (hydroxypropylcellulose) (HPC) 113 % of control | dose: 1.25 mg/kg/injection, schedule: Q01DX009 (ip), vehicle: Klucel (hydroxypropylcellulose) (HPC) 102 % of control and 117 % of control

COc1cccc2c1C(=O)c1c(O)c3c(c(O)c1C2=O)C[C@@](O)(C(=O)COC(=O)c1cccnc1)C[C@@H]3OC1CC(N)C(O)C(C)O1 (stereo partly drawn)
active: dose: 1.32 mg/kg/injection, schedule: Q01DX009 (ip), vehicle: saline 195 % of control | dose: 2.0 mg/kg/injection, schedule: Q01DX009 (ip), vehicle: saline 237 % of control

Cc1ccc(S(=O)(=O)N/N=C/C(Br)=C(/Br)C(=O)O)cc1
inactive: dose: 6.25 mg/kg/injection, schedule: Q01DX009 (ip), vehicle: Klucel (hydroxypropylcellulose) (HPC) 119 % of control | dose: 12.5 mg/kg/injection, schedule: Q01DX009 (ip), vehicle: Klucel (hydroxypropylcellulose) (HPC) 124 % of control
active: [1] 155 % of control | [2] 153 % of control

Cc1cc(N(CCO)CCO)c2ccc3cc4ccccc4cc3c2n1
inactive: [7] 119 % of control | [8] 116 % of control | [10] 94 % of control

CCCOC(=O)c1ccc(OP(=O)(N(C)C)N(C)C)cc1
inactive: [7] 100 % of control | [8] 104 % of control | [10] 100 % of control

COc1cc(-n2c(CCc3nc(-c4ccc(Cl)cc4)no3)n[nH]c2=S)c(OC)cc1Cl
inactive: [7] 100 % of control | [8] 103 % of control | [10] 110 % of control

CCOC(c1ccccc1)(c1ccccc1)c1ccccc1
inactive: dose: 100.0 mg/kg/injection, schedule: Q04DX003 (ip), vehicle: other 105 % of control | dose: 200.0 mg/kg/injection, schedule: Q04DX003 (ip), vehicle: other 105 % of control | dose: 400.0 mg/kg/injection, schedule: Q04DX003 (ip), vehicle: other 110 % of control
